In patent publication US12209102B2, “Heterocyclic compounds and uses thereof” (Kumquat Biosciences Inc., priority 2022, dated 2025) one finds IC50 data, which are given here for ten compounds.

The target in one assay is T1, K-Ras G12V (Homo sapiens, UniProt P01116, G12V).
T1 construct: made in house; host or cells: E. coli BL21 (DE3)
The experiment in a line: HTRF resonance energy transfer assay, K-Ras G12V / SOS1 interaction. The class given is biochemical. The following applies: HTRF assay of Example 5; read-out: IC50 against K-Ras G12V. In a few lines: (§1)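 GST-tagged K-Ras (WT or mutant) bound to anti-GST-Eu donor was mixed with His-hSOS1 bound to anti-6His-XL665 acceptor in ~5 mM HEPES pH 7.4, 150 mM NaCl, 1 mM DTT, 0.05% BSA, 0.0025% Igepal. HTRF (ex 337, em 620/665 nm) was read after ~10 min or longer. IC50 came from the 665/620 ratio over duplicates from 10 μM to 0.01 μM.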

The target of the next assay is T2, K-Ras G12D (Homo sapiens, UniProt P01116, G12D).
T2 construct: made in house; host or cells: E. coli BL21 (DE3)
T2 sequence (P01116 1-188 isoform P01116-2 G12D): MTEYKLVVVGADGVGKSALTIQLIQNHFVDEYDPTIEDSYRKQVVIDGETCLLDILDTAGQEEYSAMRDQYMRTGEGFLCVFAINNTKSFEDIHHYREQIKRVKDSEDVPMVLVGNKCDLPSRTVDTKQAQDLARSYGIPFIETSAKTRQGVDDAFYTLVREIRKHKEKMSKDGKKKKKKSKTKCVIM
Put plainly: HTRF resonance energy transfer assay, K-Ras G12D / SOS1 interaction. It counts as biochemical. The following applies: HTRF assay of Example 5; read-out: IC50 against K-Ras G12D. In a few lines: as §1

For another assay, the system named is SW620 cells. Put plainly: Ras cellular assay, growth of cells with K-Ras G12V mutation (CellTiter-Glo). It counts as cell-based. The conditions noted are these: Homo sapiens, SW-620; cell growth, Example 9, G12V mutation; read-out: IC50 against SW620 cells. In a few lines:
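SW620 (K-Ras G12V) cells, e.g. 800/well in RPMI-1640 with 10% heat-inactivated FBS on standard or ultra-low attachment plates, were dosed the day after plating with e.g. a 10-point 3-fold series. Viability by CellTiter-Glo luminescence about 6 days later; IC50 from four-parameter fit.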

The next assay concerns GP2D cells. The experiment in a line: Ras cellular assay, growth of cells with K-Ras G12D mutation (CellTiter-Glo). The class given is cell-based. The conditions noted are these: cell growth, Example 9, G12D mutation, read-out: IC50 against GP2D cells.
The target in another assay is T3, K-Ras G12S (Homo sapiens, UniProt P01116, G12S).
T3 construct: made in house; host or cells: E. coli BL21 (DE3)
T3 sequence (P01116 1-188 isoform P01116-2 G12S): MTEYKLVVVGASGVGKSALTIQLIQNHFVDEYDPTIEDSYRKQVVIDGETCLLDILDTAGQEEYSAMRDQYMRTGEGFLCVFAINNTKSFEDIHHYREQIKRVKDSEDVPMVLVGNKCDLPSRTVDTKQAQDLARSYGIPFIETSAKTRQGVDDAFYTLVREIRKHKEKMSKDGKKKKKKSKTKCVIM
Put plainly: HTRF resonance energy transfer assay, K-Ras G12S / SOS1 interaction. The class given is biochemical. The following applies: HTRF assay of Example 5; read-out: IC50 against K-Ras G12S. In outline: as §1

Another assay has as its system A549 cells. The experiment in a line: Ras cellular assay, growth of cells with K-Ras G12S mutation (CellTiter-Glo). It counts as cell-based. The following applies: Homo sapiens, cell growth, Example 9, G12S mutation, read-out: IC50 against A549 cells. In outline: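 A549 cells (K-Ras G12S) in RPMI-1640 with 10% heat-inactivated FBS, seeded e.g. 800 per well in standard or ultra-low-attachment 384-well plates, treated next day with a dilution series (e.g. 10-point, 3-fold). Viability by CellTiter-Glo luminescence about 6 days later; IC50 from four-parameter fit.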

A further assay addresses T4, K-Ras WT (Homo sapiens, UniProt P01116).
T4 construct: made in house; host or cells: E. coli BL21 (DE3)
The experiment in a line: HTRF resonance energy transfer assay, K-Ras WT / SOS1 interaction. The class given is biochemical. The conditions noted are these: HTRF assay of Example 5; read-out: IC50 against K-Ras WT. In a few lines:
as §1

T4 sequence (P01116 1-188 isoform P01116-2): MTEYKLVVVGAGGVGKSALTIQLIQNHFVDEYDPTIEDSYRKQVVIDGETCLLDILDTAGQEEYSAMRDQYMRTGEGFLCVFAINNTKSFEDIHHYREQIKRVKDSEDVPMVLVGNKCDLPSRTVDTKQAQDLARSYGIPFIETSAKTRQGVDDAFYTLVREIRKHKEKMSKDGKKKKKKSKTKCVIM
T1 sequence (P01116 1-188 isoform P01116-2 G12V): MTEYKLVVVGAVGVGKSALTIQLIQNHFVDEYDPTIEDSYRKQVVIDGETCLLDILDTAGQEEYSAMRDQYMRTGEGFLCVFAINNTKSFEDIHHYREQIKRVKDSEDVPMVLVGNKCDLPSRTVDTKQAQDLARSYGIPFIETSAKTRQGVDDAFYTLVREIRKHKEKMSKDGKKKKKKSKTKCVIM

Regarding `C[C@H](O)[C@H]1COc2c(Cl)c(-c3ccc(F)c4sc(N)c(C#N)c34)c(F)c3nc(OC[C@@]45CCCN4C[C@H](F)C5)nc(c23)N1CC(F)F` [Compound 817, 2-amino-4-((5R)-8-chloro-4-(2,2-difluoroethyl)-10-fluoro-2-(((2R,7aS)-2-fluorotetrahydro-1H-pyrrolizin-7a(5H)-yl)methoxy)-5-((S)-1-hydroxyethyl)-5,6-dihydro-4H-[1,4]oxazepino[5,6,7-de]quinazolin-9-yl)-7-fluorobenzo[b]thiophene-3-carbonitrile], the IC50 is less than 100 nM at K-Ras G12V; less than 100 nM at K-Ras G12D; less than 5000 nM in the assay with SW620 cells; less than 500 nM with GP2D cells; less than 100 nM on K-Ras G12S; less than 5000 nM in the assay on A549 cells. In addition, the IC50 at K-Ras WT was less than 100 nM.

As for `N#Cc1c(N)sc2c(F)ccc(-c3c(Cl)c4c5c(nc(OC[C@@]67CCCN6C[C@H](F)C7)nc5c3F)N(C3CCCOC3)CCO4)c12` (stereo partly drawn) [Compound 819, 2-amino-4-(8-chloro-10-fluoro-2-(((2R,7aS)-2-fluorotetrahydro-1H-pyrrolizin-7a(5H)-yl)methoxy)-4-(tetrahydro-2H-pyran-3-yl)-5,6-dihydro-4H-[1,4]oxazepino[5,6,7-de]quinazolin-9-yl)-7-fluorobenzo[b]thiophene-3-carbonitrile], the IC50 on K-Ras G12V is less than 100 nM; at K-Ras G12D it was less than 100 nM; in the assay with SW620 cells it was less than 5000 nM; in the assay on GP2D cells, less than 500 nM; at K-Ras G12S it was less than 100 nM; in the assay on A549 cells, less than 5000 nM. Moreover, the IC50 on K-Ras WT was less than 100 nM.

For the compound `COC1CN(C(=O)N2CCC(N3CCOc4c(Cl)c(-c5ccc(F)c6sc(N)c(C#N)c56)c(F)c5nc(OC[C@@]67CCCN6C[C@H](F)C7)nc3c45)C2)C1` (stereo partly drawn) [Compound 834, 2-amino-4-(8-chloro-10-fluoro-2-(((2R,7aS)-2-fluorotetrahydro-1H-pyrrolizin-7a(5H)-yl)methoxy)-4-(1-(3-methoxyazetidine-1-carbonyl)pyrrolidin-3-yl)-5,6-dihydro-4H-[1,4]oxazepino[5,6,7-de]quinazolin-9-yl)-7-fluorobenzo[b]thiophene-3-carbonitrile], the IC50 was less than 100 nM on K-Ras G12V; less than 100 nM on K-Ras G12D; less than 5000 nM in the assay with SW620 cells; less than 500 nM with GP2D cells; less than 100 nM at K-Ras G12S; less than 5000 nM in the assay on A549 cells. For the same compound, the 50% inhibitory concentration (IC50) at K-Ras WT is less than 100 nM.

As to `C[C@H]1COc2c(Cl)c(-c3ccc(F)c4sc(N)c(C#N)c34)c(F)c3nc(OC[C@@]45CCCN4C[C@H](F)C5)nc(c23)N1CCC(F)F` [Compound 835, 2-amino-4-((5S)-8-chloro-4-(3,3-difluoropropyl)-10-fluoro-2-(((2R,7aS)-2-fluorotetrahydro-1H-pyrrolizin-7a(5H)-yl)methoxy)-5-methyl-5,6-dihydro-4H-[1,4]oxazepino[5,6,7-de]quinazolin-9-yl)-7-fluorobenzo[b]thiophene-3-carbonitrile], the IC50 is less than 100 nM on K-Ras G12V; less than 100 nM on K-Ras G12D; less than 5000 nM in the assay with SW620 cells; less than 500 nM in the assay on GP2D cells; less than 100 nM on K-Ras G12S; less than 5000 nM with A549 cells. Further, the IC50 at K-Ras WT is less than 100 nM.

Take `N#Cc1c(N)sc2c(F)ccc(-c3c(Cl)c4c5c(nc(OC[C@@]67CCCN6C[C@H](F)C7)nc5c3F)N(CC3CC3(F)F)CCO4)c12` (stereo partly drawn) [Compound 850, 2-amino-4-(8-chloro-4-((2,2-difluorocyclopropyl)methyl)-10-fluoro-2-(((2R,7aS)-2-fluorotetrahydro-1H-pyrrolizin-7a(5H)-yl)methoxy)-5,6-dihydro-4H-[1,4]oxazepino[5,6,7-de]quinazolin-9-yl)-7-fluorobenzo[b]thiophene-3-carbonitrile]: the IC50 is less than 100 nM at K-Ras G12V; less than 100 nM on K-Ras G12D; less than 5000 nM in the assay on SW620 cells; less than 500 nM in the assay on GP2D cells; less than 100 nM at K-Ras G12S; less than 5000 nM in the assay with A549 cells. The IC50 on K-Ras WT is less than 100 nM.

Turning to `N#Cc1c(N)sc2c(F)ccc(-c3c(Cl)c4c5c(nc(OC[C@@]67CCCN6C[C@H](F)C7)nc5c3F)N(C3CCCC(O)C3)CCO4)c12` (stereo partly drawn) [Compound 854, 2-amino-4-(8-chloro-10-fluoro-2-(((2R,7aS)-2-fluorotetrahydro-1H-pyrrolizin-7a(5H)-yl)methoxy)-4-(3-hydroxycyclohexyl)-5,6-dihydro-4H-[1,4]oxazepino[5,6,7-de]quinazolin-9-yl)-7-fluorobenzo[b]thiophene-3-carbonitrile], the IC50 was less than 100 nM on K-Ras G12V; less than 100 nM at K-Ras G12D; less than 5000 nM in the assay with SW620 cells; less than 500 nM in the assay with GP2D cells; less than 100 nM at K-Ras G12S; less than 5000 nM in the assay on A549 cells. Moreover, the IC50 at K-Ras WT was less than 100 nM.

In the case of `N#Cc1c(N)sc2c(F)ccc(-c3c(Cl)c4c5c(nc(OC[C@@]67CCCN6C[C@H](F)C7)nc5c3F)N(C3CCN(C(=O)C5CC(C(F)F)C5)C3)CCO4)c12` (stereo partly drawn) [Compound 864, 2-amino-4-(8-chloro-4-(1-(3-(difluoromethyl)cyclobutane-1-carbonyl)pyrrolidin-3-yl)-10-fluoro-2-(((2R,7aS)-2-fluorotetrahydro-1H-pyrrolizin-7a(5H)-yl)methoxy)-5,6-dihydro-4H-[1,4]oxazepino[5,6,7-de]quinazolin-9-yl)-7-fluorobenzo[b]thiophene-3-carbonitrile], the IC50 is less than 100 nM on K-Ras G12V; less than 100 nM at K-Ras G12D; less than 5000 nM in the assay with SW620 cells; less than 500 nM in the assay with GP2D cells; less than 100 nM on K-Ras G12S; less than 5000 nM in the assay with A549 cells. The concentration for half-maximal inhibition (IC50) on K-Ras WT was less than 100 nM.

Consider `N#Cc1c(N)sc2c(F)ccc(-c3c(Cl)c4c5c(nc(OC[C@@]67CCCN6C[C@H](F)C7)nc5c3F)N(CC3(O)CC3)CCO4)c12` [Compound 868, 2-amino-4-(8-chloro-10-fluoro-2-(((2R,7aS)-2-fluorotetrahydro-1H-pyrrolizin-7a(5H)-yl)methoxy)-4-((1-hydroxycyclopropyl)methyl)-5,6-dihydro-4H-[1,4]oxazepino[5,6,7-de]quinazolin-9-yl)-7-fluorobenzo[b]thiophene-3-carbonitrile], for which the IC50 at K-Ras G12V is less than 100 nM; at K-Ras G12D, less than 100 nM; in the assay with SW620 cells, less than 5000 nM; in the assay with GP2D cells, less than 500 nM; at K-Ras G12S it was less than 100 nM; with A549 cells, less than 5000 nM. In addition, the IC50 on K-Ras WT was less than 100 nM.

Consider `N#Cc1c(N)sc2c(F)ccc(-c3c(Cl)c4c5c(nc(OC[C@@]67CCCN6C[C@H](F)C7)nc5c3F)N(C3CCN(C(=O)CC5CCOCC5)C3)CCO4)c12` (stereo partly drawn) [Compound 869, 2-amino-4-(8-chloro-10-fluoro-2-(((2R,7aS)-2-fluorotetrahydro-1H-pyrrolizin-7a(5H)-yl)methoxy)-4-(1-(2-(tetrahydro-2H-pyran-4-yl)acetyl)pyrrolidin-3-yl)-5,6-dihydro-4H-[1,4]oxazepino[5,6,7-de]quinazolin-9-yl)-7-fluorobenzo[b]thiophene-3-carbonitrile], for which the IC50 on K-Ras G12V is less than 100 nM; on K-Ras G12D, less than 100 nM; in the assay on SW620 cells it was less than 5000 nM; in the assay on GP2D cells it was less than 500 nM; on K-Ras G12S, less than 100 nM; in the assay with A549 cells, less than 5000 nM. Also, the IC50 on K-Ras WT was less than 100 nM.

For the compound `N#Cc1c(N)sc2c(F)ccc(-c3c(Cl)c4c5c(nc(OC[C@@]67CCCN6C[C@H](F)C7)nc5c3F)N(C3COCC3O)CCO4)c12` (stereo partly drawn) [Compound 874, 2-amino-4-(8-chloro-10-fluoro-2-(((2R,7aS)-2-fluorotetrahydro-1H-pyrrolizin-7a(5H)-yl)methoxy)-4-(4-hydroxytetrahydrofuran-3-yl)-5,6-dihydro-4H-[1,4]oxazepino[5,6,7-de]quinazolin-9-yl)-7-fluorobenzo[b]thiophene-3-carbonitrile], the IC50 is less than 100 nM on K-Ras G12V; less than 100 nM at K-Ras G12D; less than 5000 nM in the assay with SW620 cells; less than 500 nM with GP2D cells; less than 100 nM at K-Ras G12S; less than 5000 nM with A549 cells. In addition, the half-maximal inhibitory concentration (IC50) on K-Ras WT was less than 100 nM.
